Active and inactive are the calls of the source. For most assays here, no stated cut-off is given here; in the data, actives have a measured IC50 and inactives only a lower limit.
Tests used:
[1] = molecular target: T1, Tumor necrosis factor (Homo sapiens, UniProt P01375); test: TNFa-triggered NF-kB activation inhibitors, SAR follow-up, cell-based, set 3 (AID 2801); type: functional
[2] = molecular target: T2, Nucleotide-binding oligomerization domain-containing protein 2 (Homo sapiens, UniProt Q9HC29); test: NOD2 signaling inhibitors, analog potency, SAR follow-up, cell-based, set 3 (AID 2799); type: functional
[3] = molecular target: T3, Nucleotide-binding oligomerization domain-containing protein 1 (Homo sapiens, UniProt Q9Y239); test: SAR analysis of compounds that inhibit NOD1 - Set 3. [Related pubchem assays (depositor defined):AID1566, AID1575, AID1578, AID1849, AID1852, AID2333, AID2335, AID2466]; type: functional
T3 sequence (Q9Y239 whole entry): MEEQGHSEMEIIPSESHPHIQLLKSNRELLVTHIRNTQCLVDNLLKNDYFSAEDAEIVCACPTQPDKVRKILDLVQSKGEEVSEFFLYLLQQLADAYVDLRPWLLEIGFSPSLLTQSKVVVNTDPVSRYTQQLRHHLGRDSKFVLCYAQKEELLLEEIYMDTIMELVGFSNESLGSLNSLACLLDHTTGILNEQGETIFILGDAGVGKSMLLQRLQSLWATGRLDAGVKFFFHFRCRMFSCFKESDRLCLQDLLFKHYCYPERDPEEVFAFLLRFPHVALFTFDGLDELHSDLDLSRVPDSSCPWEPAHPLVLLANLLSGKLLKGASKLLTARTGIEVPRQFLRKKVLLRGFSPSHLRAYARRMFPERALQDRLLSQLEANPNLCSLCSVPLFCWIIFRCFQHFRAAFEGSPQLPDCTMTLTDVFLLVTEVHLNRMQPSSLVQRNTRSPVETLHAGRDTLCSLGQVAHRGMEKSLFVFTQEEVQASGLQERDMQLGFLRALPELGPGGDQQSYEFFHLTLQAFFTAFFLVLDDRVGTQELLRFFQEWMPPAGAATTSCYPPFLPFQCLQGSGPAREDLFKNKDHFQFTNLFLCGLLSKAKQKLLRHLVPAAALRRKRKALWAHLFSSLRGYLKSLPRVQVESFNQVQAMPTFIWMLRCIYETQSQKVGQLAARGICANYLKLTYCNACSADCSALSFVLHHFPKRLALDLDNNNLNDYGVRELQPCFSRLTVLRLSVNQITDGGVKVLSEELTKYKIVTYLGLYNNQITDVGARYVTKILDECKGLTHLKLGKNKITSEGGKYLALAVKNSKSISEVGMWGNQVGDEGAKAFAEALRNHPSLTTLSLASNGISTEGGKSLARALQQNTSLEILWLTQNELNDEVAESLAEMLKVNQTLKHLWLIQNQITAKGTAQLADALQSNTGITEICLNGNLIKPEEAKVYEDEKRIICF

[4] = tested on: HEK293; test: SAR analysis of compounds that are cytotoxic to HEK293 - Set 3. [Related pubchem assays (depositor defined):AID1575, AID1578, AID1848, AID1849, AID2001, AID2333, AID2334, AID2335, AID2337, AID2469]; type: functional, cell-based; settings: Homo sapiens
[5] = molecular target: Lysine-specific demethylase 4C (Homo sapiens, UniProt Q9H3R0); test: GASC-1 (JMJD2C) histone demethylase inhibitors, dose response, biochemical, DELFIA europium, cherry-picked samples (AID 488835); type: functional
[6] = tested on: HEK293; test: cells; settings: Homo sapiens
[7] = molecular target: T1, Tumor necrosis factor; test: TNFa-triggered NF-kB activation inhibitors, SAR follow-up, cell-based, revised (AID 2337); type: functional
[8] = molecular target: T3, Nucleotide-binding oligomerization domain-containing protein 1; test: NOD1 signaling inhibitors, SAR follow-up, revised (AID 2333); type: functional
[9] = tested on: HEK293; test: cells; settings: Homo sapiens; remark: listed apart in the source
[10] = tested on: HEK293; test: cells; settings: Homo sapiens; remark: listed apart in the source
[11] = molecular target: Alkaline phosphatase, placental type (Homo sapiens, UniProt P05187); test: PLAP enzyme inhibitors, confirmation, biochemical, luminescence (AID 1512); type: functional
[12] = molecular target: T4, Alkaline phosphatase, tissue-nonspecific isozyme (Homo sapiens, UniProt P05186); test: human TNAP enzyme inhibitors, SAR follow-up, biochemical, luminescent, dose response (AID 1056)
T4 sequence (P05186 whole entry): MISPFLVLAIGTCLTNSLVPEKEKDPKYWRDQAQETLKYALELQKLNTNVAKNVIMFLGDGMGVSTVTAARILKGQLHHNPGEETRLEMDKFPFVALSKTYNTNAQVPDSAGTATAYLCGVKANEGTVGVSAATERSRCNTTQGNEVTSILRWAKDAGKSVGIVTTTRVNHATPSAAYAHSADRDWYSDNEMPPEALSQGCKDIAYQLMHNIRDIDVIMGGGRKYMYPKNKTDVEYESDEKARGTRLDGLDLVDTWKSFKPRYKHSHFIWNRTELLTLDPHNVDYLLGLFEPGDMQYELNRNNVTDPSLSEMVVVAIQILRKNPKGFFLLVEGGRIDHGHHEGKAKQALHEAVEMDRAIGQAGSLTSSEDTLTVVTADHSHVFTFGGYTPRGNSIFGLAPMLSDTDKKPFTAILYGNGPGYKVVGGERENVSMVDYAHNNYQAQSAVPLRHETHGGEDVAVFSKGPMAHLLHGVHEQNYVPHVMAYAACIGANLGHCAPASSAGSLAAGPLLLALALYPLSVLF

[13] = molecular target: T5, Coagulation factor XII (Homo sapiens, UniProt P00748); type: functional;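 further: activated factor XIIa alpha cleaving a fluorogenic AMC peptide substrate; inhibitor potency from loss of enzyme activity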
T5 sequence (P00748 whole entry): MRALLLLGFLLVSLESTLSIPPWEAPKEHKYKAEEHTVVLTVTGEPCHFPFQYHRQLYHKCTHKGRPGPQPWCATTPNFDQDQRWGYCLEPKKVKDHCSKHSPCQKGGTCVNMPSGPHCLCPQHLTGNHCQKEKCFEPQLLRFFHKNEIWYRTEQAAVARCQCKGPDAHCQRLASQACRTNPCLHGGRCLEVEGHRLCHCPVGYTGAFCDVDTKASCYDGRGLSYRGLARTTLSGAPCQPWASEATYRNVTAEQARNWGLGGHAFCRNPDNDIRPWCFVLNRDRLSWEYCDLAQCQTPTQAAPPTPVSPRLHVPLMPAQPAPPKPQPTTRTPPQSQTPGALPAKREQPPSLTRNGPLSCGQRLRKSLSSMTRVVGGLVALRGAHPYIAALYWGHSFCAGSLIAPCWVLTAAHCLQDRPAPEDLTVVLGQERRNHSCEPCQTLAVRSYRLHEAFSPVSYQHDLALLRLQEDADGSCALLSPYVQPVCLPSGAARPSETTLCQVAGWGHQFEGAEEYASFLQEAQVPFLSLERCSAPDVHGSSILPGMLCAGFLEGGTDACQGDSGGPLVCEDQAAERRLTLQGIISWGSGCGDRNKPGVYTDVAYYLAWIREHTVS

[14] = tested on: HEK293; test: NOD1 signaling inhibitors, primary screen, cell-based, luminescence, uHTS (AID 1578); type: functional; settings: Homo sapiens
[15] = molecular target: Nonstructural protein 1 (Influenza A virus, UniProt Q194T2); type: functional, Influenza A virus (A/California/07/2009(H1N1))
[16] = molecular target: T2, Nucleotide-binding oligomerization domain-containing protein 2; test: NOD2 signaling inhibitors, cell-based, luminescence, uHTS, HEK293 (AID 1566); type: functional
[17] = tested on: HEK293; test: cells; type: functional, cell-based; settings: Homo sapiens
[18] = tested on: HEK293; test: cells; type: functional, cell-based; settings: Homo sapiens; remark: listed apart in the source
[19] = tested on: HEK293; test: NOD2 signaling inhibitors in MDP-stimulated cells, cell-based, uHTS, luminescence (AID 2001); type: functional; settings: Homo sapiens
[20] = tested on: HEK293; test: cells; type: functional, cell-based; settings: Homo sapiens; remark: listed apart in the source

T2 sequence (Q9HC29 whole entry, the tested form may be a part): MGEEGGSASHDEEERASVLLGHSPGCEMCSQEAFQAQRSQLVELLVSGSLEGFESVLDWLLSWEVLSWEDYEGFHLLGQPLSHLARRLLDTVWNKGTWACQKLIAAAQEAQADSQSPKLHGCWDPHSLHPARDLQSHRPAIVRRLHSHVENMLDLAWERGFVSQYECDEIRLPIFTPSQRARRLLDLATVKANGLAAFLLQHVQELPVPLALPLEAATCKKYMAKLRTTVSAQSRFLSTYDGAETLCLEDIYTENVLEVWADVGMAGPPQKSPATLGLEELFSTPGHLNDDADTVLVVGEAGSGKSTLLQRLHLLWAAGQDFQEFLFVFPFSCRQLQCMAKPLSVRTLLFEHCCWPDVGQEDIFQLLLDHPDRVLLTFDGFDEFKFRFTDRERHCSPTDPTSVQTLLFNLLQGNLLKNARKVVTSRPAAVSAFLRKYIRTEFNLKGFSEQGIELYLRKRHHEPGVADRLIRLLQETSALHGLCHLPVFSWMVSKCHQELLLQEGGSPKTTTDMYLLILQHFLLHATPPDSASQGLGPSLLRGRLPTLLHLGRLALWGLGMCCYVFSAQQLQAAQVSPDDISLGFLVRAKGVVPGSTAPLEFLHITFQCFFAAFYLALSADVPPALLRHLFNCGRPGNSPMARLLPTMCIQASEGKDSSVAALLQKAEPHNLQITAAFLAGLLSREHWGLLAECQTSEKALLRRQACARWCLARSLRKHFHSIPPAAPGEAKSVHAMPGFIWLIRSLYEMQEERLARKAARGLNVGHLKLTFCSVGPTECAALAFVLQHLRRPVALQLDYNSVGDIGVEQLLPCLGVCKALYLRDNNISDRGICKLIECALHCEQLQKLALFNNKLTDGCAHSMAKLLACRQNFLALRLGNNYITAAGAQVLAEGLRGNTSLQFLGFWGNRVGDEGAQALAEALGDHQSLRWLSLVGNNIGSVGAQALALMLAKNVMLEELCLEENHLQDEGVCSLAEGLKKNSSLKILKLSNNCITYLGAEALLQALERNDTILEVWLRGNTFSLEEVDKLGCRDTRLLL
T1 sequence (P01375 whole entry, the tested form may be a part): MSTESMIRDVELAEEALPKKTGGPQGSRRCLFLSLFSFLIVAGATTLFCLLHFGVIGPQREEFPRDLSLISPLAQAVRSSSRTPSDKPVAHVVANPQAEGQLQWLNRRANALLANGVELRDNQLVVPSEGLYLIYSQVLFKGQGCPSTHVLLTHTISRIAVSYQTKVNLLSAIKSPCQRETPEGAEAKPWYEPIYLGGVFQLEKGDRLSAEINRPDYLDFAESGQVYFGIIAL
Chain of Lysine-specific demethylase 4C (Q9H3R0 whole entry): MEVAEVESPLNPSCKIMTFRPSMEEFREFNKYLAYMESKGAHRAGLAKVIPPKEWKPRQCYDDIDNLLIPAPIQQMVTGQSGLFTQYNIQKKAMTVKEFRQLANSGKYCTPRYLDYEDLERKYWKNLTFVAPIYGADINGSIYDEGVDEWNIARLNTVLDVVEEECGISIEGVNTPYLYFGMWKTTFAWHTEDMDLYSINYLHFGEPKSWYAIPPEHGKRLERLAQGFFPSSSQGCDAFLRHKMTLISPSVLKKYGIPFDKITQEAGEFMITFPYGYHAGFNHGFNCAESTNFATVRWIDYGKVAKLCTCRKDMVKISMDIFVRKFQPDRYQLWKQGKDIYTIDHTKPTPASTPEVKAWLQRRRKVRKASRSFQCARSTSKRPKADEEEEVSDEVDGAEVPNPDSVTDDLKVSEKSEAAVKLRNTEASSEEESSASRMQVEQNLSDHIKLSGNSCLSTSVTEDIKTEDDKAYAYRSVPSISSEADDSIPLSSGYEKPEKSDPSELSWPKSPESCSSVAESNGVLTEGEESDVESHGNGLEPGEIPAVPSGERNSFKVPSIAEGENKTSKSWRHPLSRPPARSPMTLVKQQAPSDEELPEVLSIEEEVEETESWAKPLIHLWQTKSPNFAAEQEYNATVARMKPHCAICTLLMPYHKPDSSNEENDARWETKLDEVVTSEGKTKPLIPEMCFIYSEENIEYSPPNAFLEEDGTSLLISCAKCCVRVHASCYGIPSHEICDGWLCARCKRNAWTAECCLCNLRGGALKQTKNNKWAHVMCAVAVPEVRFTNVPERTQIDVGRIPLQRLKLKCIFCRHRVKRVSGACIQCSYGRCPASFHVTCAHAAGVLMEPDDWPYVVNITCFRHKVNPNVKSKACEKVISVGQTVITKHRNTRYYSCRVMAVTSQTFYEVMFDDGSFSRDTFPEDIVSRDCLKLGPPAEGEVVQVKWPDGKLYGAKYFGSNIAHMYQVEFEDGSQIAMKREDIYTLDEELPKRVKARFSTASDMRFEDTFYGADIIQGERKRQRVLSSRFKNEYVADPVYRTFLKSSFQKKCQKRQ
Chain of Alkaline phosphatase, placental type (P05187 whole entry): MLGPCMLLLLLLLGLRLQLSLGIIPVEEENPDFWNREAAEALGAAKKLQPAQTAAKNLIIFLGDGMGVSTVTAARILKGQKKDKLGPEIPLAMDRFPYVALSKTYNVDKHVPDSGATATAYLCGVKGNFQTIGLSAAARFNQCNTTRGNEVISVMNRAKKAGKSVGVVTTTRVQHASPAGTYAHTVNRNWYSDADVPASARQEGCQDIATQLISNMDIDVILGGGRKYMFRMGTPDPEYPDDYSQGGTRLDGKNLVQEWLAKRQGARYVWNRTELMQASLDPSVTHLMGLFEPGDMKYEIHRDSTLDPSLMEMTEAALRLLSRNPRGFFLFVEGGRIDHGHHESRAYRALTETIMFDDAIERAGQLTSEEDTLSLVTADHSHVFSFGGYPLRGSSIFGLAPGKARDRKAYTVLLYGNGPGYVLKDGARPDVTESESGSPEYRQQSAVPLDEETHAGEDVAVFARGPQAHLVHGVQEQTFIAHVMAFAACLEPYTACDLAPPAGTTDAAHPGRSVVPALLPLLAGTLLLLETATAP
Chain of Nonstructural protein 1 (Q194T2 whole entry, the tested form may be a part): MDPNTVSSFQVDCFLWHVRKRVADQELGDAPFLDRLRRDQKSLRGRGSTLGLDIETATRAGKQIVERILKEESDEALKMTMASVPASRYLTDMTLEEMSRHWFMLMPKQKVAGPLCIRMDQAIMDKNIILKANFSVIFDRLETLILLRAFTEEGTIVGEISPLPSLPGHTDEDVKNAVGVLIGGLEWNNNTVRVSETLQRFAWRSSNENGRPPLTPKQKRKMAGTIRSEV

In the case of COc1ccc(-c2cc(N)n(S(=O)(=O)c3ccc(F)c(C)c3)n2)cc1, the IC50 [1] is reported as 19.9 µM (active), the IC50 [2] is reported as > 20 µM (inactive) and the IC50 [3] is reported as > 20 µM (inactive). For the same compound, the IC50 [4] was > 20 µM (inactive).
For CCCN(C(=O)Cc1ccc(S(=O)(=O)N2CCOCC2)s1)c1c(N)n(Cc2ccccc2)c(=O)[nH]c1=O, the AC50 [5] was 39.2 µM (active).
In the case of Nc1nc2ccccc2n1S(=O)(=O)c1ccc(F)cc1, the IC50 [1] is reported as > 20 µM (inactive), the IC50 [2] is reported as > 20 µM (inactive) and the IC50 [3] is reported as 4.31 µM (active). The IC50 [4] was > 20 µM (inactive).
With CC1Cc2cc(S(=O)(=O)N3CCN(c4ccc([N+](=O)[O-])cc4)CC3)ccc2N1C(=O)C1CC1 (centres undefined) the IC50 [6] was 15.2 µM (active), the IC50 [7] was 0.236 µM (active) and the IC50 [8] was 0.26 µM (active).
For Cc1cccc(NC(=O)CSCC(=O)Nc2cc(C(F)(F)F)ccc2N2CCOCC2)c1, the EC50 [9] was > 59.6 µM (inactive) and the EC50 [10] was > 59.6 µM (inactive).
In the case of Cn1c(SCC(=O)c2ccccc2)nnc1-c1cccc(N)c1, the IC50 [11] is reported as > 100 µM (inactive), the IC50 [12] is reported as > 100 µM (inactive) and the IC50 [13] is reported as > 50 µM (inactive).
COc1cc(/C=C2\CCC/C(=C\c3ccc(O)c(OC)c3)C2=O)ccc1O [CYCLOVALONE] was tested, and the EC50 [14] was 4.94 µM (active), the IC50 [15] was > 100 µM (active) and the EC50 [16] was 9.95 µM (active). The IC50 [17] was 3.6 µM (active), the IC50 [18] was > 20 µM (inactive) and the IC50 [19] was 3.75 µM (active). The IC50 [20] was > 20 µM (inactive).

From ChEMBL document CHEMBL1201862, “PubChem BioAssay data set” (2004)
